# Publication PMC7093416, “Selective USP7 inhibition elicits cancer cell killing through a p53-dependent mechanism” (Scientific Reports, 2020)
# Tested on: panel of 484 cancer cell lines
# Experiment: PRISM cancer cell line profiling, 5 days
# Assay type: cell-based
# Set-up: AUC: unit not given beside the values
# Experimental: Cancer cell line profiling was performed using the Broad’s PRISM platform. Cell treatment and data analysis were performed as described in Yu et al[42]. Raw Luminex signal was converted to AUC values for each cell line as described. The resulting AUC profile for each compound was modeled against DepMap using the limma package in R[71]. Because hotspot mutation analysis was performed against DepMap, TP53 annotations in Fig. 6c,d are directly from DepMap.
smiles,measurement,setting,value
COc1ccc(C2=N[C@@H](c3ccc(Cl)cc3)[C@@H](c3ccc(Cl)cc3)N2C(=O)N2CCNC(=O)C2)c(OC(C)C)c1 [Nutlin-3A],AUC,LCLC103H_LUNG,1.118
same,AUC,LI7_LIVER,1.226
same,AUC,LK2_LUNG,1.169
same,AUC,LMSU_STOMACH,1.203
same,AUC,LN18_CENTRAL_NERVOUS_SYSTEM,0.9973
same,AUC,LN229_CENTRAL_NERVOUS_SYSTEM,1.064
same,AUC,LNCAPCLONEFGC_PROSTATE,0.906
same,AUC,LOUNH91_LUNG,1.066
same,AUC,LOVO_LARGE_INTESTINE,1.199
same,AUC,LOXIMVI_SKIN,0.8907
same,AUC,LS180_LARGE_INTESTINE,0.8897
same,AUC,LS411N_LARGE_INTESTINE,1.29
same,AUC,LS513_LARGE_INTESTINE,0.8844
same,AUC,LS1034_LARGE_INTESTINE,1.251
same,AUC,LU99_LUNG,0.8923
same,AUC,LUDLU1_LUNG,1.181
same,AUC,LXF289_LUNG,1.109
same,AUC,MALME3M_SKIN,0.9143
same,AUC,MCAS_OVARY,1.217
same,AUC,MCF7_BREAST,0.9374
same,AUC,MDAMB175VII_BREAST,0.8089
same,AUC,MDAMB231_BREAST,1.111
same,AUC,MDAMB435S_SKIN,1.081
same,AUC,MDAMB436_BREAST,1.063
same,AUC,MDAMB468_BREAST,1.113
same,AUC,MELHO_SKIN,1.198
same,AUC,MELJUSO_SKIN,0.855
same,AUC,MESSA_SOFT_TISSUE,0.8635
same,AUC,MEWO_SKIN,1.1265
same,AUC,MFE280_ENDOMETRIUM,1.185
same,AUC,MFE296_ENDOMETRIUM,1.073
same,AUC,MFE319_ENDOMETRIUM,1.2827
same,AUC,MG63_BONE,1.195
same,AUC,MHHES1_BONE,1.218
same,AUC,MIAPACA2_PANCREAS,1.097
same,AUC,MKN1_STOMACH,1.379
same,AUC,MKN7_STOMACH,1.0858
same,AUC,MKN45_STOMACH,0.8665
same,AUC,MKN74_STOMACH,1.252
same,AUC,MON_SOFT_TISSUE,0.7179
same,AUC,MPP89_PLEURA,1.087
same,AUC,MSTO211H_PLEURA,0.822
same,AUC,NB1_AUTONOMIC_GANGLIA,0.8777
same,AUC,NCIH23_LUNG,0.9857
same,AUC,NCIH28_PLEURA,0.8619
same,AUC,NCIH226_LUNG,0.8738
same,AUC,NCIH292_LUNG,0.8581
same,AUC,NCIH322_LUNG,1.162
same,AUC,NCIH358_LUNG,1.107
same,AUC,NCIH446_LUNG,1.181
same,AUC,NCIH460_LUNG,0.8926
same,AUC,NCIH520_LUNG,1.322
same,AUC,NCIH522_LUNG,1.212
same,AUC,NCIH596_LUNG,1.199
same,AUC,NCIH650_LUNG,1.249
same,AUC,NCIH661_LUNG,1.081
same,AUC,NCIH727_LUNG,1.026
same,AUC,NCIH747_LARGE_INTESTINE,1.189
same,AUC,NCIH838_LUNG,0.9622
same,AUC,NCIH841_LUNG,1.117
same,AUC,NCIH1048_LUNG,1.2735
same,AUC,NCIH1299_LUNG,1.108
same,AUC,NCIH1339_LUNG,1.0925
same,AUC,NCIH1355_LUNG,1.119
same,AUC,NCIH1373_LUNG,1.06
same,AUC,NCIH1435_LUNG,1.3405
same,AUC,NCIH1437_LUNG,1.108
same,AUC,NCIH1563_LUNG,0.9521
same,AUC,NCIH1568_LUNG,1.038
same,AUC,NCIH1573_LUNG,1.073
same,AUC,NCIH1581_LUNG,1.043
same,AUC,NCIH1623_LUNG,1.145
same,AUC,NCIH1648_LUNG,1.123
same,AUC,NCIH1650_LUNG,0.973
same,AUC,NCIH1651_LUNG,1.183
same,AUC,NCIH1693_LUNG,1.133
same,AUC,NCIH1703_LUNG,1.137
same,AUC,NCIH1792_LUNG,1.259
same,AUC,NCIH1793_LUNG,1.1676
same,AUC,NCIH1838_LUNG,1.199
same,AUC,NCIH1915_LUNG,1.099
same,AUC,NCIH1944_LUNG,0.8303
same,AUC,NCIH1975_LUNG,1.115
same,AUC,NCIH2009_LUNG,0.9703
same,AUC,NCIH2023_LUNG,1.159
same,AUC,NCIH2030_LUNG,1.1142
same,AUC,NCIH2052_PLEURA,0.8463
same,AUC,NCIH2077_LUNG,0.9696
same,AUC,NCIH2087_LUNG,1.211
same,AUC,NCIH2110_LUNG,1.143
same,AUC,NCIH2122_LUNG,0.8016
same,AUC,NCIH2126_LUNG,1.1108
